According to US10010614B2, “Derivatives of GLP-1 like peptides, and uses thereof” (Novo Nordisk A/S, priority 2013, dated 2018):
Like-named read-outs stand apart in the source and are kept apart here. Numbered stars: 1 amine (or outer) side, 2 acyl side, 3 side chain; on linkers, the order of the positions; unused ones are H or OH. Square brackets hold non-standard residues; d marks the D form. Side chains are listed from the residue outwards. Peptide text beside a SMILES is read from it. * marks the point of attachment. C20 diacid = O=C(O)CCCCCCCCCCCCCCCCCCC(=O)*; γGlu = O=C(O)[C@H](CCC(=O)[*:2])N[*:1]; εLys = N[C@@H](CCCCN[*:1])C(=O)[*:2]; Trx = NC[C@H]1CC[C@H](C(=O)O)CC1; PEG4 = NCCOCCOCCOCCOCCC(=O)O; AEEA = NCCOCCOCC(=O)O; Aib = CC(C)(N)C(=O)O

Key:
human GLP-1 receptor [1] = target: T1, human GLP-1 receptor (Homo sapiens, UniProt P43220); experiment: In vitro potency, CRE luciferase reporter gene assay in BHK cells expressing the human GLP-1 receptor; format: cell-based; conditions: whole cell reporter gene assay, 3 h incubation, no HSA, averages of at least two replicates
T1 construct: expressed in transfected cells; host or cells: membranes prepared from BHK cells (parent line BHKTS13), clone FCW467-12A
T1 sequence (P43220 24-463): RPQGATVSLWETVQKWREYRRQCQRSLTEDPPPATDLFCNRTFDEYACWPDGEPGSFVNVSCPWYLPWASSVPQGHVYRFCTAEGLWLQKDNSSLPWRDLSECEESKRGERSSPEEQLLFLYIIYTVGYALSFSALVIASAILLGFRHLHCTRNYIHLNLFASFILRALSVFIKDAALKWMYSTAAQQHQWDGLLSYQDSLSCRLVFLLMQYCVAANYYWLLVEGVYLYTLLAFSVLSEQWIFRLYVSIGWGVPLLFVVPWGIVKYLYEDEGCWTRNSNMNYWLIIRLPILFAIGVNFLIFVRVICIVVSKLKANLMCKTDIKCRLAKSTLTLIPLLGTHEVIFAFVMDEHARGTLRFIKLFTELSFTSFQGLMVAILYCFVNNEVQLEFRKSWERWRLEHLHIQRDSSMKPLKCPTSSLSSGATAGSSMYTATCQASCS
Protocol: The purpose of this example is to test the activity, or potency, of the GLP-1 derivatives in vitro. The in vitro potency is the measure of human GLP-1 receptor activation in a whole cell assay.
Semaglutide was included for comparison.
In vitro potency was determined by measuring the response of the human GLP-1 receptor in a reporter gene assay. The assay was performed in a stably transfected BHK cell line that expresses the human GLP-1 receptor and contains the DNA for the cAMP response element (CRE) coupled to a promoter and the gene for firefly luciferase (CRE luciferase). When the human GLP-1 receptor is activated it results in the production of cAMP, which in turn results in the luciferase protein being expressed. When assay incubation is completed the luciferase substrate (luciferin) is added and the enzyme converts luciferin to oxyluciferin to produce bioluminescence. The luminescence is measured as the readout for the assay.
The cells used in this assay (clone FCW467-12A/KZ10-1) were BHK cells with BHKTS13 as a parent cell line. The cells were derived from a clone (FCW467-12A) that expresses the human GLP-1 receptor and were established by further transfection with CRE luciferase to obtain the current clone.
The cells were cultured at 5% CO2 in Cell Culture Medium. They were aliquoted and stored in liquid nitrogen. Before each assay an aliquot is taken up and washed twice in PBS before being suspended at the desired concentration in the assay specific buffer. For 96-well plates the suspension was made to give a final concentration of 5×10^3 cells/well.
The following chemicals were used in the assay: Pluronic F-68 (10%) (Gibco 2404), human serum albumin (HSA) (Sigma A9511), ovalbumin (Sigma A5503), DMEM w/o phenol red (Gibco 11880-028), 1 M Hepes (Gibco 15630), Glutamax 100× (Gibco 35050) and steadylite plus (PerkinElmer 6016757).
Cell Culture Medium consisted of DMEM medium with 10% FBS (Fetal Bovine Serum; Invitrogen 16140-071), 1 mg/ml G418 (Invitrogen 15140-122), 240 nM MTX (methotrexate; Sigma M9929) and 1% pen/strep (penicillin/streptomycin; Invitrogen 15140-122).
Assay Medium consisted of DMEM w/o phenol red, 10 mM Hepes and 1× Glutamax. The Assay Buffer consisted of 2% ovalbumin and 0.2% Pluronic F-68 in Assay Medium.
1) Cell stocks were thawed in a 37° C. water bath.
2) Cells were washed three times in PBS.
3) The cells were counted and adjusted to 5×10^3 cells/50 μl (1×10^5 cells/ml) in Assay Medium. A 50 μl aliquot of cells was transferred to each well in the assay plate.
4) Stocks of the test compounds and reference compounds were diluted to a concentration of 0.2 μM in Assay Buffer. Compounds were diluted 10-fold to give the following concentrations: 2×10^−7 M, […]; 2×10^−9 M, 2×10^−10 M, 2×10^−11 M, 2×10^−12 M, 2×10^−13 M, and 2×10^−14 M. 5) A 50 μl aliquot of compound or blank was transferred from the dilution plate to the assay plate. Compounds were tested at the following final concentrations: 1×10^−7 M, 1×10^−8 M; 1×10^−9 M, 1×10^−10 M, 1×10^−11 M, 1×10^−12 M, 1×10^−13 M, and 1×10^−14 M. 6) The assay plate was incubated for 3 h in a 5% CO2 incubator at 37° C. 7) The assay plate was removed from the incubator and allowed to stand at room temperature for 15 min. 8) A 100 μl aliquot of steadylite plus reagent was added to each well of the assay plate (reagent was light sensitive). 9) Each assay plate was covered with aluminum foil to protect it from light and shaken for 30 min at room temperature. 10) Each assay plate was read in a Packard TopCount NXT instrument. Calculations and Results
The data from the TopCount instrument were transferred to GraphPad Prism software. The software performs a non-linear regression (log(agonist) vs response).
A minimum of two replicates was measured for each sample. The reported values are averages of the replicates.

human GLP-1 receptor [2] = target: T1, human GLP-1 receptor; experiment: GLP-1 receptor binding, competitive binding assay (125I-GLP-1, SPA) on isolated membranes;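 note: test compounds added at a range of concentrations to membranes from cells expressing the human GLP-1 receptor, scored by displacement of labelled ligand, read with WGA SPA beads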
Protocol: The purpose of this example is to test the receptor binding of the GLP-1 derivatives in vitro. The receptor binding is a measure of affinity of a derivative for the human GLP-1 receptor.
In this type of assay a labelled ligand (in this case ^125I-GLP-1) is bound to the receptor. Each derivative is added in a series of concentrations to isolated membranes containing the human GLP-1 receptor and displacement of the labelled ligand is monitored. The receptor binding is reported as the concentration at which half of the labelled ligand is displaced from the receptor, the IC50 value.
The following chemicals were used in the assay: Human serum albumin (HSA) (Sigma A1653), DMEM w/o phenol red (Gibco 11880-028), Pen/strep (Invitrogen 15140-122), G418 (Invitrogen 10131-027), 1 M Hepes (Gibco 15630), EDTA (Invitrogen 15575-038), PBS (Invitrogen 14190-094), fetal calf serum (Invitrogen 16140-071), EGTA, MgCl2 (Merck 1.05832.1000), Tween 20 (Amresco 0850C335), SPA particles (wheat germ agglutinin (WGA) SPA beads, Perkin Elmer RPNQ0001), [^125I]-GLP-1]-(7-36)NH2 (produced in-house), OptiPlate™-96 (Packard 6005290).
Buffer 1 consisted of 20 mM Na-HEPES plus 10 mM EDTA and pH was adjusted to 7.4. Buffer 2 consisted of 20 mM Na-HEPES plus 0.1 mM EDTA and pH was adjusted to 7.4. Assay buffer consisted of 50 mM HEPES supplemented with 5 mM EGTA, 5 mM MgCl2, 0.005% Tween 20 and pH was adjusted to 7.4. An 8% albumin stock consisted of HSA dissolved at 8% (w/v) in assay buffer. An 0.02% albumin stock consisted of HSA dissolved at 0.02% (w/v) in assay buffer.
The cells express the human GLP-1 receptor.
The cells were grown at 5% CO2 in DMEM, 10% fetal calf serum, 1% Pen/Strep (Penicillin/Streptomycin) and 1.0 mg/ml of the selection marker G418.
To make a membrane preparation the cells were grown to approximately 80% confluence. The cells were washed twice in phosphate-buffered saline and harvested. The cells were pelleted using a brief centrifugation and the cell pellet was kept on ice. The cell pellet was homogenised with ULTRA-THURRAX™ dispersing instrument for 20-30 seconds in a suitable amount of buffer 1 (e.g., 10 ml). The homogenate was centrifuged for 15 minutes. The pellet was re-suspended (homogenised) in 10 ml buffer 2 and centrifuged. This step was repeated once more. The resulting pellet was re-suspended in buffer 2 and the protein concentration was determined. The membranes were aliquoted and stored at minus 80° C.
For the receptor binding assay in the presence of low HSA (0.005%) 50 μl of the assay buffer was added to each well of an assay plate.
For the receptor binding assay in the presence of high HSA (2%) 50 μl of the 8% albumin stock was added to each well of an assay plate.
Cell membrane aliquots were thawed and diluted to their working concentration. Fifty μl were added to each well in the assay plate.
WGA SPA beads were suspended in assay buffer at 20 mg/ml. The suspension was diluted to 10 mg/ml in assay buffer just prior to addition to the assay plate. Fifty μl were added to each well in the assay plate.
The incubation was started by adding 25 μl of 480 pM solution of [^125I]-GLP-1]-(7-36)NH2 to each well of the assay plate. A 25 μl aliquot was reserved for measuring total counts/well.
The assay plate was incubated for 2 h at 30° C.
The assay plate was centrifuged for 10 min.
The assay plate was read in a Packard TopCount NXT instrument.
The data from the TopCount instrument were transferred to GraphPad Prism software. The software averaged the values for the replicates and performed a non-linear regression. IC50 values were calculated by the software and reported in nM.

[3] = high serum albumin (2.0% HSA final assay concentration), read-out: High HSA IC50
[4] = low serum albumin (max. 0.001% final assay concentration), read-out: Low HSA IC50
[5] = High HSA IC50 (nM), high serum albumin (2.0% HSA final assay concentration)
[6] = Low HSA IC50 (nM), low serum albumin (max. 0.001% final assay concentration)

IC50 (human GLP-1 receptor [2]; [3]) [nM]	IC50 (human GLP-1 receptor [2]; [4]) [nM]	SMILES	EC50 (human GLP-1 receptor [1]) [nM]	IC50 (human GLP-1 receptor [2]; [5]) [nM]	IC50 (human GLP-1 receptor [2]; [6]) [nM]
142	2.4	CC[C@H](C)[C@H](NC(=O)[C@H](Cc1ccccc1)NC(=O)[C@H](CCC(=O)O)NC(=O)[C@H](CCCNC(=N)N)NC(=O)[C@H](C)NC(=O)[C@H](C)NC(=O)[C@H](CCC(N)=O)NC(=O)[C@H](CCC(=O)O)NC(=O)[C@H](CCC(=O)O)NC(=O)[C@H](CC(C)C)NC(=O)[C@H](Cc1ccc(O)cc1)NC(=O)[C@H](CO)NC(=O)[C@H](CO)NC(=O)[C@@H](NC(=O)[C@H](CC(=O)O)NC(=O)[C@H](CO)NC(=O)[C@@H](NC(=O)[C@H](Cc1ccccc1)NC(=O)[C@@H](NC(=O)CNC(=O)[C@H](CCC(=O)O)NC(=O)C(C)(C)NC(=O)[C@@H](N)Cc1c[nH]cn1)[C@@H](C)O)[C@@H](C)O)C(C)C)C(=O)N[C@@H](C)C(=O)N[C@@H](Cc1c[nH]c2ccccc12)C(=O)N[C@@H](CC(C)C)C(=O)N[C@H](C(=O)N[C@@H](CCCNC(=N)N)C(=O)NCC(=O)N[C@@H](CCCNC(=N)N)C(=O)NCC(=O)N[C@@H](CCCCNC(=O)COCCOCCNC(=O)COCCOCCNC(=O)COCCOCCNC(=O)COCCOCCNC(=O)CC[C@H](NC(=O)CCCCCCCCCCCCCCCCCCC(=O)O)C(=O)O)C(=O)NCC(=O)NCC(=O)N[C@@H](CO)C(=O)N[C@@H](CCCCNC(=O)COCCOCCNC(=O)COCCOCCNC(=O)COCCOCCNC(=O)COCCOCCNC(=O)CC[C@H](NC(=O)CCCCCCCCCCCCCCCCCCC(=O)O)C(=O)O)C(=O)O)C(C)C [Example 19] (H-H[Aib]EGTFTSDVSSYLEEQAAREFIAWLVRGRGK([AEEA-AEEA-AEEA-AEEA-γGlu-C20 diacid])GGSK([AEEA-AEEA-AEEA-AEEA-γGlu-C20 diacid])-OH; N-terminus and C-terminus assumed)	0.0062	–	–
–	–	CC[C@H](C)[C@H](NC(=O)[C@H](Cc1ccccc1)NC(=O)[C@H](CCC(=O)O)NC(=O)[C@H](CCCNC(=N)N)NC(=O)[C@H](C)NC(=O)[C@H](C)NC(=O)[C@H](CCC(N)=O)NC(=O)[C@H](CCC(=O)O)NC(=O)[C@H](CCC(=O)O)NC(=O)[C@H](CC(C)C)NC(=O)[C@H](Cc1ccc(O)cc1)NC(=O)[C@H](CO)NC(=O)[C@H](CO)NC(=O)[C@@H](NC(=O)[C@H](CC(=O)O)NC(=O)[C@H](CO)NC(=O)[C@@H](NC(=O)[C@H](Cc1ccccc1)NC(=O)[C@@H](NC(=O)CNC(=O)[C@H](CCC(=O)O)NC(=O)C(C)(C)NC(=O)[C@@H](N)Cc1c[nH]cn1)[C@@H](C)O)[C@@H](C)O)C(C)C)C(=O)N[C@@H](C)C(=O)N[C@@H](Cc1c[nH]c2ccccc12)C(=O)N[C@@H](CC(C)C)C(=O)N[C@H](C(=O)N[C@@H](CCCNC(=N)N)C(=O)NCC(=O)N[C@@H](CCCCNC(=O)COCCOCCNC(=O)COCCOCCNC(=O)CC[C@H](NC(=O)[C@H]1CC[C@H](CNC(=O)CCCCCCCCCCCCCCCCCCC(=O)O)CC1)C(=O)O)C(=O)NCC(=O)N[C@@H](C)C(=O)N[C@@H](CCC(=O)O)C(=O)N[C@@H](CO)C(=O)N1CCC[C@H]1C(=O)N[C@@H](CCCCNC(=O)COCCOCCNC(=O)COCCOCCNC(=O)CC[C@H](NC(=O)[C@H]1CC[C@H](CNC(=O)CCCCCCCCCCCCCCCCCCC(=O)O)CC1)C(=O)O)C(=O)O)C(C)C [Example 14] (H-H[Aib]EGTFTSDVSSYLEEQAAREFIAWLVRGK([AEEA-AEEA-γGlu-Trx-C20 diacid])GAESPK([AEEA-AEEA-γGlu-Trx-C20 diacid])-OH)	0.022	530	1.5
38	0.22	CC[C@H](C)[C@H](NC(=O)[C@H](Cc1ccccc1)NC(=O)[C@H](CCC(=O)O)NC(=O)[C@H](CCCNC(=N)N)NC(=O)[C@H](C)NC(=O)[C@H](C)NC(=O)[C@H](CCC(N)=O)NC(=O)[C@H](CCC(=O)O)NC(=O)[C@H](CCC(=O)O)NC(=O)[C@H](CC(C)C)NC(=O)[C@H](Cc1ccc(O)cc1)NC(=O)[C@H](CO)NC(=O)[C@H](CO)NC(=O)[C@@H](NC(=O)[C@H](CC(=O)O)NC(=O)[C@H](CO)NC(=O)[C@@H](NC(=O)[C@H](Cc1ccccc1)NC(=O)[C@@H](NC(=O)CNC(=O)[C@H](CCC(=O)O)NC(=O)C(C)(C)NC(=O)[C@@H](N)Cc1c[nH]cn1)[C@@H](C)O)[C@@H](C)O)C(C)C)C(=O)N[C@@H](C)C(=O)N[C@@H](Cc1c[nH]c2ccccc12)C(=O)N[C@@H](CC(C)C)C(=O)N[C@H](C(=O)N[C@@H](CCCNC(=N)N)C(=O)NCC(=O)N[C@@H](CCCNC(=N)N)C(=O)NCC(=O)N[C@@H](CCCCNC(=O)COCCOCCNC(=O)COCCOCCNC(=O)COCCOCCNC(=O)COCCOCCNC(=O)[C@@H](N)CCCCNC(=O)[C@@H](N)CCCCNC(=O)CCCCCCCCCCCCCCCCCCC(=O)O)C(=O)NCC(=O)NCC(=O)N[C@@H](CO)C(=O)N[C@@H](CCCCNC(=O)COCCOCCNC(=O)COCCOCCNC(=O)COCCOCCNC(=O)COCCOCCNC(=O)[C@@H](N)CCCCNC(=O)[C@@H](N)CCCCNC(=O)CCCCCCCCCCCCCCCCCCC(=O)O)C(=O)O)C(C)C [Example 25] (H-H[Aib]EGTFTSDVSSYLEEQAAREFIAWLVRGRGK([AEEA-AEEA-AEEA-AEEA-εLys-εLys-C20 diacid])GGSK([AEEA-AEEA-AEEA-AEEA-εLys-εLys-C20 diacid])-OH; N-terminus and C-terminus assumed)	0.01	–	–
–	–	CC[C@H](C)[C@H](NC(=O)[C@H](Cc1ccccc1)NC(=O)[C@H](CCC(=O)O)NC(=O)[C@H](CCCNC(=N)N)NC(=O)[C@H](C)NC(=O)[C@H](C)NC(=O)[C@H](CCC(N)=O)NC(=O)[C@H](CCC(=O)O)NC(=O)[C@H](CCC(=O)O)NC(=O)[C@H](CC(C)C)NC(=O)[C@H](Cc1ccc(O)cc1)NC(=O)[C@H](CO)NC(=O)[C@H](CO)NC(=O)[C@@H](NC(=O)[C@H](CC(=O)O)NC(=O)[C@H](CO)NC(=O)[C@@H](NC(=O)[C@H](Cc1ccccc1)NC(=O)[C@@H](NC(=O)CNC(=O)[C@H](CCC(=O)O)NC(=O)C(C)(C)NC(=O)[C@@H](N)Cc1c[nH]cn1)[C@@H](C)O)[C@@H](C)O)C(C)C)C(=O)N[C@@H](C)C(=O)N[C@@H](Cc1c[nH]c2ccccc12)C(=O)N[C@@H](CC(C)C)C(=O)N[C@H](C(=O)N[C@@H](CCCNC(=N)N)C(=O)NCC(=O)N[C@@H](CCCNC(=N)N)C(=O)NCC(=O)N[C@@H](CCCCNC(=O)CCOCCOCCOCCOCCNC(=O)CC[C@H](NC(=O)[C@H]1CC[C@H](CNC(=O)CCCCCCCCCCCCCCCCCCC(=O)O)CC1)C(=O)O)C(=O)NCC(=O)NCC(=O)N[C@@H](CO)C(=O)N[C@@H](CCCCNC(=O)CCOCCOCCOCCOCCNC(=O)CC[C@H](NC(=O)[C@H]1CC[C@H](CNC(=O)CCCCCCCCCCCCCCCCCCC(=O)O)CC1)C(=O)O)C(=O)O)C(C)C [Example 10, N{Alpha}([Aib8,Glu22,Arg26,Arg34]-GLP-1-(7-37)-peptidyl)-N{Epsilon}3-[2-[2-[2-[2-[[(4S)-4-carboxy-4-[[4-[(19-carboxynonadecanoylamino)methyl]cyclohexanecarbonyl]amino]butanoyl]amino]ethoxy]ethoxy]ethoxy]ethoxy]propanoylLys-Gly-Gly-Ser-N{Epsilon}3-[2-[2-[2-[2-[[(4S)-4-carboxy-4-[[4-[(19-carboxynonadecanoylamino)methyl]cyclohexanecarbonyl]amino]butanoyl]amino]ethoxy]ethoxy]ethoxy]ethoxy]propanoylLys] (H-H[Aib]EGTFTSDVSSYLEEQAAREFIAWLVRGRGK([PEG4-γGlu-Trx-C20 diacid])GGSK([PEG4-γGlu-Trx-C20 diacid])-OH)	0.027	123	1.3
